In ChEMBL document CHEMBL1795223, “A reverse method for diversity introduction of benzimidazole to synthesize H(+)/K(+)-ATP enzyme inhibitors” (Bioorg Med Chem Lett, 2011):

Assays:
Sus scrofa = species on record: Sus scrofa; test: Inhibition of H+/K+ATPase in pig gastric microsome assessed as liberation of inorganic phosphate using ATP at 10 uM relative to control; assay type: microsomes; conditions: Stomach
[1] = Inhibition of H+/K+ATPase in pig gastric microsome assessed as liberation of inorganic phosphate using ATP; assay type: microsomes, Sus scrofa, Stomach

inhibition (Sus scrofa) [%]	IC50 [1] [µM]	Compound
58	–	COc1c(C)cnc(C[S+]([O-])c2nc3cc(N4CCCCC4)c(NC(=O)COCc4ccccc4)cc3[nH]2)c1C (stereo unspecified)
38	–	COc1ccnc(C[S+]([O-])c2nc3cc(N4CCCCC4)c(NC(=O)C(F)(F)F)cc3[nH]2)c1OC (stereo unspecified)
8	–	COc1ccnc(C[S+]([O-])c2nc3cc(N4CCCCC4)c(NC(C)=O)cc3[nH]2)c1OC (stereo unspecified)
18	–	COc1c(C)cnc(C[S+]([O-])c2nc3cc(Oc4ccccc4)c(NC(=O)C4CC4)cc3[nH]2)c1C (stereo unspecified)
16	–	COc1cc2nc([S+]([O-])Cc3ncc(C)c(OC)c3C)[nH]c2cc1NC(=O)C1CC1 (stereo unspecified)
41	–	COc1c(C)cnc(C[S+]([O-])c2nc3cc(N4CCCCC4)c(NC(=O)C(F)(F)F)cc3[nH]2)c1C (stereo unspecified)
15	–	CCOC(=O)N1CCN(c2cc3nc([S+]([O-])Cc4ncc(C)c(OC)c4C)[nH]c3cc2NC(C)=O)CC1 (stereo unspecified)
10	–	COc1c(C)cnc(C[S+]([O-])c2nc3cc(N4CCCCC4)c(NC(C)=O)cc3[nH]2)c1C (stereo unspecified)
34	–	COc1c(C)cnc(C[S+]([O-])c2nc3cc(N4CCCCC4)c(NC(=O)C4CC4)cc3[nH]2)c1C (stereo unspecified)
4	–	COc1cc2nc([S+]([O-])Cc3ncc(C)c(OC)c3C)[nH]c2cc1NC(C)=O (stereo unspecified)
32	–	COc1ccnc(C[S+]([O-])c2nc3cc(N4CCCCC4)c(NC(=O)C4CC4)cc3[nH]2)c1OC (stereo unspecified)
33	–	CCCN(CCC)c1cc2nc([S+]([O-])Cc3ncc(C)c(OC)c3C)[nH]c2cc1NC(=O)C1CC1 (stereo unspecified)
21	–	CCOC(=O)N1CCN(c2cc3nc([S+]([O-])Cc4ncc(C)c(OC)c4C)[nH]c3cc2NC(=O)C2CC2)CC1 (stereo unspecified)

More lines, now with the values behind:

Compound	inhibition (Sus scrofa) [%]	IC50 [1] [µM]
COc1ccnc(C[S+]([O-])c2nc3cc(Oc4ccccc4)c(NC(=O)C4CC4)cc3[nH]2)c1OC (stereo unspecified)	2	–
CCCN(CCC)c1cc2nc([S+]([O-])Cc3ncc(C)c(OC)c3C)[nH]c2cc1NC(C)=O (stereo unspecified)	62	16
CCOC(=O)N1CCN(c2cc3nc([S+]([O-])Cc4nccc(OC)c4OC)[nH]c3cc2NC(=O)C2CC2)CC1 (stereo unspecified)	4	–
CCCN(CCC)c1cc2nc([S+]([O-])Cc3ncc(C)c(OC)c3C)[nH]c2cc1NC(=O)c1ccco1 (stereo unspecified)	39	–
COc1c(C)cnc(C[S+]([O-])c2nc3cc(Oc4ccc5c(c4)OCO5)c(NC(C)=O)cc3[nH]2)c1C (stereo unspecified)	35	–
COc1ccnc(C[S+]([O-])c2nc3cc(Oc4ccc5c(c4)OCO5)c(NC(C)=O)cc3[nH]2)c1OC (stereo unspecified)	1	–
COc1c(C)cnc(C[S+]([O-])c2nc3cc(Oc4ccc5c(c4)OCO5)c(NC(=O)C4CC4)cc3[nH]2)c1C (stereo unspecified)	10	–
COc1ccnc(C[S+]([O-])c2nc3cc(N4CCCCC4)c(NC(=O)COCc4ccccc4)cc3[nH]2)c1OC (stereo unspecified)	32	–
CCCN(CCC)c1cc2nc([S+]([O-])Cc3nccc(OC)c3OC)[nH]c2cc1NC(=O)C1CC1 (stereo unspecified)	11	–
COc1cc2nc([S+]([O-])Cc3nccc(OC)c3OC)[nH]c2cc1NC(C)=O (stereo unspecified)	4	–
CCCN(CCC)c1cc2nc([S+]([O-])Cc3nccc(OC)c3OC)[nH]c2cc1NC(=O)c1ccco1 (stereo unspecified)	0	–
CCOC(=O)N1CCN(c2cc3nc([S+]([O-])Cc4nccc(OC)c4OC)[nH]c3cc2NC(C)=O)CC1 (stereo unspecified)	17	–
COc1ccc2[nH]c([S+]([O-])Cc3ncc(C)c(OC)c3C)nc2c1 (stereo unspecified) [OMEPRAZOLE]	39	18
COc1ccnc(C[S+]([O-])c2nc3cc(Oc4ccccc4)c(NC(C)=O)cc3[nH]2)c1OC (stereo unspecified)	6	–
COCCCOc1ccnc(C[S+]([O-])c2nc3ccccc3[nH]2)c1C (stereo unspecified) [RABEPRAZOLE SODIUM]	90	1.5
COc1cc2nc([S+]([O-])Cc3ncc(C)c(OC)c3C)[nH]c2cc1NC(=O)c1ccco1 (stereo unspecified)	13	–
COc1cc2nc([S+]([O-])Cc3nccc(OC)c3OC)[nH]c2cc1NC(=O)c1ccco1 (stereo unspecified)	13	–
CCCN(CCC)c1cc2nc([S+]([O-])Cc3nccc(OC)c3OC)[nH]c2cc1NC(=O)C(F)(F)F (stereo unspecified)	24	–
COc1c(C)cnc(C[S+]([O-])c2nc3cc(Oc4ccccc4)c(NC(=O)c4ccco4)cc3[nH]2)c1C (stereo unspecified)	48	–
COc1ccnc(C[S+]([O-])c2nc3cc(Oc4ccccc4)c(NC(=O)c4ccco4)cc3[nH]2)c1OC (stereo unspecified)	9	–
COc1c(C)cnc(C[S+]([O-])c2nc3cc(Oc4ccccc4)c(NC(C)=O)cc3[nH]2)c1C (stereo unspecified)	37	–
COc1ccnc(C[S+]([O-])c2nc3cc(Oc4ccc5c(c4)OCO5)c(NC(=O)C4CC4)cc3[nH]2)c1OC (stereo unspecified)	0	–
CCCN(CCC)c1cc2nc([S+]([O-])Cc3nccc(OC)c3OC)[nH]c2cc1NC(C)=O (stereo unspecified)	28	–
CCCN(CCC)c1cc2nc([S+]([O-])Cc3ncc(C)c(OC)c3C)[nH]c2cc1NC(=O)C(F)(F)F (stereo unspecified)	3	–
COc1cc2nc([S+]([O-])Cc3nccc(OC)c3OC)[nH]c2cc1NC(=O)C1CC1 (stereo unspecified)	16	–
